These results are taken from US20260166175A1, “FABRICATION OF CYCLODEXTRIN PARTICLES AND CRYOGELS AND METHODS OF USING AND MAKING THEREOF” (University of South Florida, priority 2022, published 2026).

The structures appear in SMILES notation.

The test system of one data set is L929 fibroblasts. Kind of data set: Cytotoxicity (MTT cell viability) on L929 fibroblasts. The data set is classed as cell-based. The settings on record: 1.0 mg/mL, 24 h incubation. As to the method:
For the biocompatibility analysis, L929 fibroblasts were cultured in an air-humidified incubator (5% CO2 atmosphere) in DMEM supplemented with 10% fetal bovine serum (FBS) at up to 70% cell confluency. The cytotoxicity analysis of CD-based materials was performed by MTT assay which determines the metabolic activity of living cells.
The L929 fibroblast cell suspension was adjusted to a density of 5×10^5 cells mL^−1 and gently homogenized. Then, 100 µL of this cell suspension was seeded onto wells on a 96-well plate. The well-plate was incubated at 37° C. under 5% CO2 in an air-humidified incubator for 24 h. After adherence of the fibroblasts, the culture medium was removed from the wells and 100 μL of CD-based particle suspension in culture medium DMEM at different concentrations between 50 and 1000 μg/mL was added to the cells. The plate was incubated at 37° C. under 5% CO2 in an air-humidified incubator for 24 h more. At the end of the incubation, the medium was removed from the wells, the cells were washed with phosphate-buffered saline solution (PBS) two times. After this step, 100 μL of MTT (Tetrazolium dye) at 0.5 mg/mL concentration was added to each well. The plate was incubated at room temperature in the dark for 4 h. Then, MTT solution was removed from the wells and 200 μL of DMSO was placed into the wells to dissolve the blue formazan crystals. Finally, the absorbance values were measured at 590 nm with a plate reader (Thermo Scientific™ Multiskan™). The absorbance value of control group was accepted as 100% viability and the decrease in cell viability % was estimated based on the absorbance values of the wells treated with CD-based materials by the following equation, Cell viability
Where Amaterial is the absorbance value of the cells interacting with CD-based materials and Acontrol is the absorbance value of the untreated cells as control. All assays were carried out in triplicate and the results are given with standard deviations.

The subject of a further data set is Human blood. Kind of data set: Blood clotting assay. The settings on record: 1 mg/mL. The protocol:
Hemolysis and blood clotting assays were performed to investigate the blood compatibility of linear α-CD, β-CD, and γ-CD and their particle forms. Human blood was obtained from healthy volunteers and approved by the Clinical Research Ethics Committee of Canakkale Onsekiz Mart University (2011-KAEK-27/2022-2200063689) and placed into tubes containing EDTA. Before the analysis, all solutions were preheated to 37° C.
For the blood clotting assay, 64 μL of 0.2 M CaCl2 aqueous solution was mixed with 810 μL of blood containing EDTA and immediately 270 μL of this blood was covered with 10 mg of linear CD or CD particle. After 10 min, 10 mL of DI water was slowly added into the tubes and centrifuged at 100 g for 1 minute. Then 10 mL of supernatant solution containing non-clotting blood was taken from the tube and diluted with 40 mL of DI water. In the separation tube, 250 μL of the blood containing EDTA was dispersed in 50 mL of DI water as a control. The blood solution was incubated at 37.5° C. in a water bath for 1 h and then, the absorbance value of the supernatant was measured at 542 nm by using UV-Vis spectroscopy. The blood clotting index of the linear CD or CD particles was evaluated from the following equation.
Where Amaterial is the absorbance value of the blood solution interacted with the CD-based materials and Acontol is the absorbance value of the blood solution without the CD-based materials as a control. All assays were carried out in triplicate and the results are given with standard deviations.

Data set [1] can be described thus: Bisphenol A or curcumin loading into p(CD) particles (adsorption). Type of data set: physicochemical. The note with it: for absorbed BPA: guest BPA; for absorbed CUR: guest CUR. As to the method: Then, BPA-loaded CD-based particles were washed with ethanol-water (1:1) mixture one time by centrifugation at 10 000 rpm for 10 min. The BPA loaded CD-based particles were dried by freeze dryer for 48 h. Similarly, curcumin (CUR) was loaded into p(α-CD), p(β-CD), and p(γ-CD) particles by using the same procedure as described above. […] The CUR-loaded p(CD) materials were dried by freeze dryer for 48 h. The absorbance value of the BPA/CUR solutions before and after the loading processes were measured by using UV-Vis spectroscopy (SP-UV300SRB, Spectrum, China) at 275 nm and 425 nm for BPA and CUR, respectively against the previously constructed corresponding calibration curves for BPA and CUR prepared in ethanol-water mixtures. The ethanol-water solution was prepared at 1:7 and 3:2 volume ratios for BPA and CUR, respectively.

On to `OCC1OC2OC3C(CO)OC(OC4C(CO)OC(OC5C(CO)OC(OC6C(CO)OC(OC7C(CO)OC(OC8C(CO)OC(OC9C(CO)OC(OC1C(O)C2O)C(O)C9O)C(O)C8O)C(O)C7O)C(O)C6O)C(O)C5O)C(O)C4O)C(O)C3O` (stereo not drawn) [γ-CD, γ-cyclodextrin], for which the cell viability (in general, the share of living cells, or the viability signal relative to a control) with L929 fibroblasts was found to be 95±14%. The blood clotting index in the data set with Human blood is 98.4±0.7%. Besides, in data set [1], the “absorbed BPA” value was found to be 0.222 mmol/mmol and the “absorbed CUR” value turned out to be 0.416 mmol/mmol.
On the same counts, the results for `OCC1OC2OC3C(CO)OC(OC4C(CO)OC(OC5C(CO)OC(OC6C(CO)OC(OC7C(CO)OC(OC1C(O)C2O)C(O)C7O)C(O)C6O)C(O)C5O)C(O)C4O)C(O)C3O` (stereo not drawn) [α-CD, α-cyclodextrin] are 90±7%, 93.6±2.2%, 0.158 mmol/mmol and 0.482 mmol/mmol.
Compound `OCC1OC2OC3C(CO)OC(OC4C(CO)OC(OC5C(CO)OC(OC6C(CO)OC(OC7C(CO)OC(OC8C(CO)OC(OC1C(O)C2O)C(O)C8O)C(O)C7O)C(O)C6O)C(O)C5O)C(O)C4O)C(O)C3O` (stereo not drawn) [β-CD, β-cyclodextrin] returned a cell viability in the data set with L929 fibroblasts of 89±14%. Further, the blood clotting index in the data set with Human blood was 92.3±2.3%. In data set [1], the “absorbed BPA” value stood at 0.279 mmol/mmol and the “absorbed CUR” value was found to be 0.398 mmol/mmol.
